PubChem BioAssay (NCI)
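A five-concentration, 48-hour dose response in 96-well plates underlies each endpoint, interpolated linearly between surrounding concentrations. TGI: concentration producing complete growth inhibition.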

Assays:
Assay in all cases: NCI tumour cell line growth inhibition, 48 h
SR leukemia = system: SR leukemia
EKVX NSCLC = system: EKVX NSCLC
T-47D breast = system: T-47D breast
MDA-N = system: MDA-N
NCI-H23 lung = system: NCI-H23 lung
U251 CNS = system: U251 CNS
HCT-15 colon = system: HCT-15 colon
COLO 205 colon = system: COLO 205 colon
BT-549 breast = system: BT-549 breast
OVCAR-5 ovarian = system: OVCAR-5 ovarian
SF-295 CNS = system: SF-295 CNS
RPMI-8226 leukemia = system: RPMI-8226 leukemia
SNB-19 CNS = system: SNB-19 CNS
HOP-62 NSCLC = system: HOP-62 NSCLC
786-0 renal = system: 786-0 renal
MCF7 breast = system: MCF7 breast
TK-10 renal = system: TK-10 renal
CAKI-1 renal = system: CAKI-1 renal
ACHN renal = system: ACHN renal
SK-MEL-2 melanoma = system: SK-MEL-2 melanoma
HCT-116 colon = system: HCT-116 colon
KM12 colon = system: KM12 colon
NCI-H522 lung = system: NCI-H522 lung
PC-3 prostate = system: PC-3 prostate
SNB-75 CNS = system: SNB-75 CNS
MOLT-4 leukemia = system: MOLT-4 leukemia
SN12C renal = system: SN12C renal
NCI-H226 lung = system: NCI-H226 lung
K-562 leukemia = system: K-562 leukemia
NCI/ADR-RES ovarian = system: NCI/ADR-RES ovarian
IGROV1 ovarian = system: IGROV1 ovarian
A549 NSCLC = system: A549 NSCLC
SK-MEL-28 melanoma = system: SK-MEL-28 melanoma
HS 578T breast = system: HS 578T breast
UACC-62 melanoma = system: UACC-62 melanoma
MDA-MB-435 = system: MDA-MB-435
HT29 colon = system: HT29 colon
OVCAR-4 ovarian = system: OVCAR-4 ovarian
SW-620 colon = system: SW-620 colon
OVCAR-8 ovarian = system: OVCAR-8 ovarian
UACC-257 melanoma = system: UACC-257 melanoma
OVCAR-3 ovarian = system: OVCAR-3 ovarian
SK-MEL-5 melanoma = system: SK-MEL-5 melanoma
MDA-MB-231 breast = system: MDA-MB-231 breast
UO-31 renal = system: UO-31 renal
A498 renal = system: A498 renal
SK-OV-3 ovarian = system: SK-OV-3 ovarian
HL-60(TB) leukemia = system: HL-60(TB) leukemia
M14 melanoma = system: M14 melanoma
RXF 393 renal = system: RXF 393 renal
SF-268 CNS = system: SF-268 CNS
HCC-2998 colon = system: HCC-2998 colon
DU-145 prostate = system: DU-145 prostate
MALME-3M melanoma = system: MALME-3M melanoma
CCRF-CEM leukemia = system: CCRF-CEM leukemia
NCI-H460 lung = system: NCI-H460 lung
LOX IMVI melanoma = system: LOX IMVI melanoma

Compound: CCn1cc2c(=O)n3ncn(-c4ccc(Br)cc4)c3nc2n1
- TGI (SR leukemia): > 100 µM
- TGI (EKVX NSCLC): > 100 µM
- TGI (T-47D breast): > 100 µM
- TGI (MDA-N): > 100 µM
- TGI (NCI-H23 lung): > 100 µM
- TGI (U251 CNS): > 100 µM
- TGI (HCT-15 colon): > 100 µM
- TGI (COLO 205 colon): > 100 µM
- TGI (BT-549 breast): > 100 µM
- TGI (OVCAR-5 ovarian): > 100 µM
- TGI (SF-295 CNS): > 100 µM
- TGI (RPMI-8226 leukemia): > 100 µM
- TGI (SNB-19 CNS): > 100 µM
- TGI (HOP-62 NSCLC): > 100 µM
- TGI (786-0 renal): > 100 µM
- TGI (MCF7 breast): > 100 µM
- TGI (TK-10 renal): > 100 µM
- TGI (CAKI-1 renal): > 100 µM
- TGI (ACHN renal): > 100 µM
- TGI (SK-MEL-2 melanoma): > 100 µM
- TGI (HCT-116 colon): > 100 µM
- TGI (KM12 colon): > 100 µM
- TGI (NCI-H522 lung): > 100 µM
- TGI (PC-3 prostate): > 100 µM
- TGI (SNB-75 CNS): 45.8 µM
- TGI (MOLT-4 leukemia): > 100 µM
- TGI (SN12C renal): > 100 µM
- TGI (NCI-H226 lung): > 100 µM
- TGI (K-562 leukemia): > 100 µM
- TGI (NCI/ADR-RES ovarian): > 100 µM
- TGI (IGROV1 ovarian): > 100 µM
- TGI (A549 NSCLC): > 100 µM
- TGI (SK-MEL-28 melanoma): > 100 µM
- TGI (HS 578T breast): > 100 µM
- TGI (UACC-62 melanoma): > 100 µM
- TGI (MDA-MB-435): > 100 µM
- TGI (HT29 colon): > 100 µM
- TGI (OVCAR-4 ovarian): > 100 µM
- TGI (SW-620 colon): > 100 µM
- TGI (OVCAR-8 ovarian): > 100 µM
- TGI (UACC-257 melanoma): > 100 µM
- TGI (OVCAR-3 ovarian): > 100 µM
- TGI (SK-MEL-5 melanoma): > 100 µM
- TGI (MDA-MB-231 breast): > 100 µM
- TGI (UO-31 renal): > 100 µM
- TGI (A498 renal): > 100 µM
- TGI (SK-OV-3 ovarian): > 100 µM
- TGI (HL-60(TB) leukemia): > 100 µM
- TGI (M14 melanoma): > 100 µM
- TGI (RXF 393 renal): > 100 µM
- TGI (SF-268 CNS): > 100 µM
- TGI (HCC-2998 colon): > 100 µM
- TGI (DU-145 prostate): > 100 µM
- TGI (MALME-3M melanoma): > 100 µM
- TGI (CCRF-CEM leukemia): > 100 µM

Compound: C=CCN(c1cc(OC)c(NC(C)=O)cc1[N+](=O)[O-])S(C)(=O)=O
- TGI (SR leukemia): > 100 µM
- TGI (EKVX NSCLC): > 100 µM
- TGI (T-47D breast): > 100 µM
- TGI (MDA-N): > 100 µM
- TGI (NCI-H23 lung): > 100 µM
- TGI (U251 CNS): > 100 µM
- TGI (HCT-15 colon): > 100 µM
- TGI (COLO 205 colon): > 100 µM
- TGI (BT-549 breast): > 100 µM
- TGI (OVCAR-5 ovarian): > 100 µM
- TGI (SF-295 CNS): > 100 µM
- TGI (RPMI-8226 leukemia): > 100 µM
- TGI (SNB-19 CNS): > 100 µM
- TGI (HOP-62 NSCLC): > 100 µM
- TGI (786-0 renal): > 100 µM
- TGI (MCF7 breast): > 100 µM
- TGI (TK-10 renal): > 100 µM
- TGI (CAKI-1 renal): > 100 µM
- TGI (ACHN renal): > 100 µM
- TGI (SK-MEL-2 melanoma): > 100 µM
- TGI (HCT-116 colon): > 100 µM
- TGI (KM12 colon): > 100 µM
- TGI (NCI-H522 lung): 12.5 µM
- TGI (PC-3 prostate): > 100 µM
- TGI (SNB-75 CNS): > 100 µM
- TGI (MOLT-4 leukemia): > 100 µM
- TGI (SN12C renal): > 100 µM
- TGI (NCI-H226 lung): > 100 µM
- TGI (K-562 leukemia): > 100 µM
- TGI (NCI/ADR-RES ovarian): > 100 µM
- TGI (IGROV1 ovarian): > 100 µM
- TGI (A549 NSCLC): > 100 µM
- TGI (SK-MEL-28 melanoma): > 100 µM
- TGI (HS 578T breast): > 100 µM
- TGI (UACC-62 melanoma): > 100 µM
- TGI (MDA-MB-435): > 100 µM
- TGI (OVCAR-4 ovarian): > 100 µM
- TGI (SW-620 colon): > 100 µM
- TGI (OVCAR-8 ovarian): > 100 µM
- TGI (UACC-257 melanoma): > 100 µM
- TGI (OVCAR-3 ovarian): > 100 µM
- TGI (SK-MEL-5 melanoma): > 100 µM
- TGI (MDA-MB-231 breast): > 100 µM
- TGI (UO-31 renal): > 100 µM
- TGI (NCI-H460 lung): > 100 µM
- TGI (A498 renal): > 100 µM
- TGI (SK-OV-3 ovarian): > 100 µM
- TGI (HL-60(TB) leukemia): > 100 µM
- TGI (M14 melanoma): > 100 µM
- TGI (RXF 393 renal): > 100 µM
- TGI (LOX IMVI melanoma): > 100 µM
- TGI (SF-268 CNS): > 100 µM
- TGI (HCC-2998 colon): > 100 µM
- TGI (DU-145 prostate): > 100 µM
- TGI (MALME-3M melanoma): 68.5 µM
- TGI (CCRF-CEM leukemia): > 100 µM
